Legend:
potassium arsenate = compound: O=[As]([O-])(O)O.[K+] [potassium arsenate]; assay: thermal stability z-score vs DMSO; higher = more thermally stabilized by treatment; settings: HeLa; arsenate concentration 1 mM
Experimental: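 Cellular thermal proteome profiling in HeLa cells treated with 1 mM arsenate for 1 h (DMSO pretreatment), heated to ten temperatures (37-66.3 °C). Soluble protein was quantified by TMT mass spectrometry relative to DMSO controls; the thermal stability score was transformed to a z-score; mean of n = 3 experiments.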

lipoamide = compound: NC(=O)CCCCC1CCSS1 [lipoamide]; assay: as above; settings: HeLa, lipoamide concentration 100 µM
Experimental: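 Cellular thermal proteome profiling in HeLa cells. Cells were treated with 100 µM lipoamide for 1 h, with or without 1 mM arsenate for a further 1 h, then heated to ten temperatures (37-66.3 °C), and soluble protein was quantified by TMT mass spectrometry relative to 0.1% DMSO controls. The thermal stability score (sum of log2 fold changes minus the abundance score) was transformed to a z-score; mean of n = 3 experiments.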

[1] = arsenate co-treatment: 1 mM arsenate 1 h
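Further: each temperature applied for 3 min, abundance score taken as mean log2 fold change at the two lowest temperatures, z-score obtained by mean subtraction and division by SD.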

Target: NEXN (UniProt Q0ZGT2)
UniProt Q0ZGT2, sequence (Q0ZGT2 whole entry): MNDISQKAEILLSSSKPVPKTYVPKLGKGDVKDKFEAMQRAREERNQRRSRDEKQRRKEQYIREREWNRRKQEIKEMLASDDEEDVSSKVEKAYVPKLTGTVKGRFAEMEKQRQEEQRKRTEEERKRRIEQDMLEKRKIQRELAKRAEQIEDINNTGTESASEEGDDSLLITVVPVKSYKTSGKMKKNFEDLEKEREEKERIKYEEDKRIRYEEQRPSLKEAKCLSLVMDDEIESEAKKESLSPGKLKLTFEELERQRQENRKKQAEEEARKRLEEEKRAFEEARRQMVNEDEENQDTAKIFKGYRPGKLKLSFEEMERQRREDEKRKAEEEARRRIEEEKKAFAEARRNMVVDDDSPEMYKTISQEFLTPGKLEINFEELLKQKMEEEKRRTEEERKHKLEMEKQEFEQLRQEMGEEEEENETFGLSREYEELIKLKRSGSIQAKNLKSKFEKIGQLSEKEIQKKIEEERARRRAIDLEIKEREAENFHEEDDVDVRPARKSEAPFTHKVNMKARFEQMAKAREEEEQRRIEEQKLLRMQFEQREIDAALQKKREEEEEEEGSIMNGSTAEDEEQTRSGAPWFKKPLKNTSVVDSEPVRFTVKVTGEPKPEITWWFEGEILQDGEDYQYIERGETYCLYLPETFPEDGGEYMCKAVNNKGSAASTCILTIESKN
- thermal stability z-score (potassium arsenate): 0.0665
- thermal stability z-score (lipoamide; [1]): 0.00122
- thermal stability z-score (lipoamide; arsenate co-treatment: none): 0.037

Target: PSPH (UniProt P78330)
UniProt P78330, sequence (P78330 whole entry): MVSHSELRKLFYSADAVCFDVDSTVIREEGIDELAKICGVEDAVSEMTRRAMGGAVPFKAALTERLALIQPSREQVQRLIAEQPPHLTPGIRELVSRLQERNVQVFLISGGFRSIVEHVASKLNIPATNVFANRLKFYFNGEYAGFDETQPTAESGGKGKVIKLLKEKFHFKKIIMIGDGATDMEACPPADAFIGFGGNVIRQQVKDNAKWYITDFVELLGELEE
- thermal stability z-score (potassium arsenate): 0.056
- thermal stability z-score (lipoamide; [1]): 0.359
- thermal stability z-score (lipoamide; arsenate co-treatment: none): 0.393

Target: IDH2 (UniProt P48735)
- thermal stability z-score (potassium arsenate): -0.911
- thermal stability z-score (lipoamide; [1]): -0.129
- thermal stability z-score (lipoamide; arsenate co-treatment: none): 0.0632

Target: DNPH1 (UniProt O43598)
- thermal stability z-score (potassium arsenate): -0.0373
- thermal stability z-score (lipoamide; [1]): 0.0889
- thermal stability z-score (lipoamide; arsenate co-treatment: none): -0.11

Target: SELK (UniProt Q9Y6D0)
- thermal stability z-score (potassium arsenate): 0.22
- thermal stability z-score (lipoamide; [1]): 0.406
- thermal stability z-score (lipoamide; arsenate co-treatment: none): -0.759

Target: HNRNPC (UniProt P07910)
- thermal stability z-score (potassium arsenate): 0.94
- thermal stability z-score (lipoamide; [1]): 2.24
- thermal stability z-score (lipoamide; arsenate co-treatment: none): 1.04

Target: ARL14EP (UniProt Q8N8R7)
- thermal stability z-score (potassium arsenate): -0.3
- thermal stability z-score (lipoamide; [1]): -0.0926
- thermal stability z-score (lipoamide; arsenate co-treatment: none): -0.15

Target: MTCH1 (UniProt Q9NZJ7)
UniProt Q9NZJ7, sequence (Q9NZJ7 whole entry): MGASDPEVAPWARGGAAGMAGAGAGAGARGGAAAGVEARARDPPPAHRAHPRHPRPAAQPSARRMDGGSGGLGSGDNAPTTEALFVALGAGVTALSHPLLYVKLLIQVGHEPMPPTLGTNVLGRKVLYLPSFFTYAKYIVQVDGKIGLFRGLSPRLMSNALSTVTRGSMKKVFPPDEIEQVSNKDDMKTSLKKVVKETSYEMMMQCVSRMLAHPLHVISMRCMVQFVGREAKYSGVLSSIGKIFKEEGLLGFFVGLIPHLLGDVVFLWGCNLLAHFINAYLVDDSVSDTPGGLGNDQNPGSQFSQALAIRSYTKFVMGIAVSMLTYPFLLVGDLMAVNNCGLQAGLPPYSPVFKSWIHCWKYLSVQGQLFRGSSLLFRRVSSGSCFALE
- thermal stability z-score (potassium arsenate): 0.404
- thermal stability z-score (lipoamide; [1]): -0.143
- thermal stability z-score (lipoamide; arsenate co-treatment: none): -0.0871

Target: DERL1 (UniProt Q9BUN8)
UniProt Q9BUN8, sequence (Q9BUN8 whole entry): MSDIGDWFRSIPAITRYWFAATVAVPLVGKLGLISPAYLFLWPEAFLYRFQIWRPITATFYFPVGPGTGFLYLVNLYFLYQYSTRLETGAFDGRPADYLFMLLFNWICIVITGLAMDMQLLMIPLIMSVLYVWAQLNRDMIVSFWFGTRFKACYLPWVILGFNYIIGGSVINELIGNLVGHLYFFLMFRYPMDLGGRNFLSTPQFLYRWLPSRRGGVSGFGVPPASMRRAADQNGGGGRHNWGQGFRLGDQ
- thermal stability z-score (potassium arsenate): -0.00515
- thermal stability z-score (lipoamide; [1]): -0.177
- thermal stability z-score (lipoamide; arsenate co-treatment: none): -0.185

Target: STK38L (UniProt Q9Y2H1)
- thermal stability z-score (potassium arsenate): 0.201
- thermal stability z-score (lipoamide; [1]): 0.0467
- thermal stability z-score (lipoamide; arsenate co-treatment: none): 0.0651

Target: WNK1 (UniProt Q9H4A3)
- thermal stability z-score (potassium arsenate): 0.386
- thermal stability z-score (lipoamide; [1]): 0.149
- thermal stability z-score (lipoamide; arsenate co-treatment: none): -0.0327

Target: MYO1E (UniProt Q12965)
- thermal stability z-score (potassium arsenate): -0.8
- thermal stability z-score (lipoamide; [1]): 0.918
- thermal stability z-score (lipoamide; arsenate co-treatment: none): 0.582

Target: PTP4A2 (UniProt Q12974)
- thermal stability z-score (potassium arsenate): 0.861
- thermal stability z-score (lipoamide; [1]): 1.78
- thermal stability z-score (lipoamide; arsenate co-treatment: none): 1.15

Target: VPS36 (UniProt Q86VN1)
- thermal stability z-score (potassium arsenate): 0.0802
- thermal stability z-score (lipoamide; [1]): -0.308
- thermal stability z-score (lipoamide; arsenate co-treatment: none): -0.0675

Target: NUF2 (UniProt Q9BZD4)
- thermal stability z-score (potassium arsenate): 2.02
- thermal stability z-score (lipoamide; [1]): -0.884
- thermal stability z-score (lipoamide; arsenate co-treatment: none): -0.901

Target: ANXA4 (UniProt P09525)
- thermal stability z-score (potassium arsenate): 0.225
- thermal stability z-score (lipoamide; [1]): 1.42
- thermal stability z-score (lipoamide; arsenate co-treatment: none): 1.61

Target: DDX41 (UniProt Q9UJV9)
UniProt Q9UJV9, sequence (Q9UJV9 whole entry): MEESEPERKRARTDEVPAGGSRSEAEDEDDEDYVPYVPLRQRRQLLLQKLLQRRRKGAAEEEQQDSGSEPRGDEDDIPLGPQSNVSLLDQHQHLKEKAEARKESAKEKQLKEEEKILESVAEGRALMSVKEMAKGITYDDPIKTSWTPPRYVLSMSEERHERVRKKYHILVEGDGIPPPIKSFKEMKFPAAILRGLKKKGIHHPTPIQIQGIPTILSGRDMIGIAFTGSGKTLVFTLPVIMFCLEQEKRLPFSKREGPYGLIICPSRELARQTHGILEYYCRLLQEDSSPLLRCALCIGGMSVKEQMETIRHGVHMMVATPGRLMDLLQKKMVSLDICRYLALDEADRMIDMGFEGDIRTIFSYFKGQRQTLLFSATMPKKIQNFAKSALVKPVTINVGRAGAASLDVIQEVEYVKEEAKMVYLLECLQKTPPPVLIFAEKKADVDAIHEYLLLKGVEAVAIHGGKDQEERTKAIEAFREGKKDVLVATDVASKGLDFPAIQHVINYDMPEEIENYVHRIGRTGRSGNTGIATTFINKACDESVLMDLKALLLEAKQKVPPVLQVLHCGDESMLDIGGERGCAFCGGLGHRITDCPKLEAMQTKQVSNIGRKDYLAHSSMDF
- thermal stability z-score (potassium arsenate): -0.204
- thermal stability z-score (lipoamide; [1]): -0.196
- thermal stability z-score (lipoamide; arsenate co-treatment: none): -0.0709

Target: UQCR10 (UniProt Q9UDW1)
UniProt Q9UDW1, sequence (Q9UDW1 whole entry): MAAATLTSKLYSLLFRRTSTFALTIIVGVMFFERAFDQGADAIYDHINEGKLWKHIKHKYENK
- thermal stability z-score (potassium arsenate): 0.553
- thermal stability z-score (lipoamide; [1]): -0.399
- thermal stability z-score (lipoamide; arsenate co-treatment: none): 0.0606

Target: H1FX (UniProt Q92522)
UniProt Q92522, sequence (Q92522 whole entry): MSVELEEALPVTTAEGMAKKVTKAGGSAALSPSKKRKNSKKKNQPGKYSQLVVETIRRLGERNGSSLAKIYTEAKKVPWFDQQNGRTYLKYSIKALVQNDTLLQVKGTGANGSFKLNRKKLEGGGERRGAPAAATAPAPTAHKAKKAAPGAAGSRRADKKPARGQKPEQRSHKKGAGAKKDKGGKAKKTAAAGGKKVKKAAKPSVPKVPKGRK
- thermal stability z-score (potassium arsenate): -1.7
- thermal stability z-score (lipoamide; [1]): -0.468
- thermal stability z-score (lipoamide; arsenate co-treatment: none): -0.893

Target: SERPINB8 (UniProt P50452)
- thermal stability z-score (potassium arsenate): -1.08
- thermal stability z-score (lipoamide; [1]): 0.899
- thermal stability z-score (lipoamide; arsenate co-treatment: none): 0.458

Target: SH3KBP1 (UniProt Q96B97)
- thermal stability z-score (potassium arsenate): -0.523
- thermal stability z-score (lipoamide; [1]): 0.46
- thermal stability z-score (lipoamide; arsenate co-treatment: none): 0.0841

Target: TOM1 (UniProt O60784)
- thermal stability z-score (potassium arsenate): 0.244
- thermal stability z-score (lipoamide; [1]): 0.231
- thermal stability z-score (lipoamide; arsenate co-treatment: none): -0.536

Target: PSMA5 (UniProt P28066)
- thermal stability z-score (potassium arsenate): -0.238
- thermal stability z-score (lipoamide; [1]): 0.148
- thermal stability z-score (lipoamide; arsenate co-treatment: none): 0.204

Target: CDCA3 (UniProt Q99618)
- thermal stability z-score (potassium arsenate): -0.233
- thermal stability z-score (lipoamide; [1]): 0.196
- thermal stability z-score (lipoamide; arsenate co-treatment: none): 0.0335

Target: PGAM1 (UniProt P18669)
- thermal stability z-score (potassium arsenate): -0.0878
- thermal stability z-score (lipoamide; [1]): -0.0445
- thermal stability z-score (lipoamide; arsenate co-treatment: none): 0.244

Target: ACAD11 (UniProt Q709F0)
- thermal stability z-score (potassium arsenate): -0.343
- thermal stability z-score (lipoamide; [1]): -0.363
- thermal stability z-score (lipoamide; arsenate co-treatment: none): 0.0251

Target: PKN1 (UniProt Q16512)
- thermal stability z-score (potassium arsenate): -0.513
- thermal stability z-score (lipoamide; [1]): -0.436
- thermal stability z-score (lipoamide; arsenate co-treatment: none): -0.52

Target: WASF2 (UniProt Q9Y6W5)
- thermal stability z-score (potassium arsenate): -0.206
- thermal stability z-score (lipoamide; [1]): -0.14
- thermal stability z-score (lipoamide; arsenate co-treatment: none): -0.155

Target: PPP4R3B (UniProt Q5MIZ7)
- thermal stability z-score (potassium arsenate): -0.227
- thermal stability z-score (lipoamide; [1]): -0.195
- thermal stability z-score (lipoamide; arsenate co-treatment: none): -0.1

Target: CCDC174 (UniProt Q6PII3)
- thermal stability z-score (potassium arsenate): -0.984
- thermal stability z-score (lipoamide; [1]): -0.407
- thermal stability z-score (lipoamide; arsenate co-treatment: none): -0.734

Target: RRAGC (UniProt Q9HB90)
- thermal stability z-score (potassium arsenate): -0.786
- thermal stability z-score (lipoamide; [1]): 0.182
- thermal stability z-score (lipoamide; arsenate co-treatment: none): -0.182

Target: PTPRJ (UniProt Q12913)
- thermal stability z-score (potassium arsenate): -0.764
- thermal stability z-score (lipoamide; [1]): 1.03
- thermal stability z-score (lipoamide; arsenate co-treatment: none): -0.0729

Target: CDR2 (UniProt Q01850)
- thermal stability z-score (potassium arsenate): 0.139
- thermal stability z-score (lipoamide; [1]): 0.134
- thermal stability z-score (lipoamide; arsenate co-treatment: none): 0.141

Target: BSDC1 (UniProt Q9NW68)
- thermal stability z-score (potassium arsenate): -0.209
- thermal stability z-score (lipoamide; [1]): -0.585
- thermal stability z-score (lipoamide; arsenate co-treatment: none): -0.361

Target: ANKZF1 (UniProt Q9H8Y5)
UniProt Q9H8Y5, sequence (Q9H8Y5 whole entry): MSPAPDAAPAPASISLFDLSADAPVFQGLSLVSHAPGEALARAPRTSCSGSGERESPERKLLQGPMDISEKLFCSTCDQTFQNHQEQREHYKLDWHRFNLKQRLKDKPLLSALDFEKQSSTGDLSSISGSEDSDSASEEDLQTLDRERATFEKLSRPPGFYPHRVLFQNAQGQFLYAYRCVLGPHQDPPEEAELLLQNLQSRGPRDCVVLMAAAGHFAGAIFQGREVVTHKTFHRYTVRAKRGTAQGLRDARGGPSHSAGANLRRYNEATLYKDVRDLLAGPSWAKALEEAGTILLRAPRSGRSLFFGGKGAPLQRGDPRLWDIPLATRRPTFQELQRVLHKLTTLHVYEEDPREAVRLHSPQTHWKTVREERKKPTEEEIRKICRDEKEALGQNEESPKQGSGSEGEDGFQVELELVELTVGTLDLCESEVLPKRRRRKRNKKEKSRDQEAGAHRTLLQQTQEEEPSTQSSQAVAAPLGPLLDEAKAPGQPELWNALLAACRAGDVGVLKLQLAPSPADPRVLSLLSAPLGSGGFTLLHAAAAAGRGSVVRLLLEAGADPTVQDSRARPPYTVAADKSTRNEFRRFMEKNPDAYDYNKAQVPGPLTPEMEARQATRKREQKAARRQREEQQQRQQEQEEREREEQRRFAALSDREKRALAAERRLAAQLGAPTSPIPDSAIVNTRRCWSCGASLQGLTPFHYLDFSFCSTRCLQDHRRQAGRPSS
- thermal stability z-score (potassium arsenate): 0.0789
- thermal stability z-score (lipoamide; [1]): 0.373
- thermal stability z-score (lipoamide; arsenate co-treatment: none): 0.0149

Target: LMO7 (UniProt Q8WWI1)
UniProt Q8WWI1, sequence (Q8WWI1 whole entry): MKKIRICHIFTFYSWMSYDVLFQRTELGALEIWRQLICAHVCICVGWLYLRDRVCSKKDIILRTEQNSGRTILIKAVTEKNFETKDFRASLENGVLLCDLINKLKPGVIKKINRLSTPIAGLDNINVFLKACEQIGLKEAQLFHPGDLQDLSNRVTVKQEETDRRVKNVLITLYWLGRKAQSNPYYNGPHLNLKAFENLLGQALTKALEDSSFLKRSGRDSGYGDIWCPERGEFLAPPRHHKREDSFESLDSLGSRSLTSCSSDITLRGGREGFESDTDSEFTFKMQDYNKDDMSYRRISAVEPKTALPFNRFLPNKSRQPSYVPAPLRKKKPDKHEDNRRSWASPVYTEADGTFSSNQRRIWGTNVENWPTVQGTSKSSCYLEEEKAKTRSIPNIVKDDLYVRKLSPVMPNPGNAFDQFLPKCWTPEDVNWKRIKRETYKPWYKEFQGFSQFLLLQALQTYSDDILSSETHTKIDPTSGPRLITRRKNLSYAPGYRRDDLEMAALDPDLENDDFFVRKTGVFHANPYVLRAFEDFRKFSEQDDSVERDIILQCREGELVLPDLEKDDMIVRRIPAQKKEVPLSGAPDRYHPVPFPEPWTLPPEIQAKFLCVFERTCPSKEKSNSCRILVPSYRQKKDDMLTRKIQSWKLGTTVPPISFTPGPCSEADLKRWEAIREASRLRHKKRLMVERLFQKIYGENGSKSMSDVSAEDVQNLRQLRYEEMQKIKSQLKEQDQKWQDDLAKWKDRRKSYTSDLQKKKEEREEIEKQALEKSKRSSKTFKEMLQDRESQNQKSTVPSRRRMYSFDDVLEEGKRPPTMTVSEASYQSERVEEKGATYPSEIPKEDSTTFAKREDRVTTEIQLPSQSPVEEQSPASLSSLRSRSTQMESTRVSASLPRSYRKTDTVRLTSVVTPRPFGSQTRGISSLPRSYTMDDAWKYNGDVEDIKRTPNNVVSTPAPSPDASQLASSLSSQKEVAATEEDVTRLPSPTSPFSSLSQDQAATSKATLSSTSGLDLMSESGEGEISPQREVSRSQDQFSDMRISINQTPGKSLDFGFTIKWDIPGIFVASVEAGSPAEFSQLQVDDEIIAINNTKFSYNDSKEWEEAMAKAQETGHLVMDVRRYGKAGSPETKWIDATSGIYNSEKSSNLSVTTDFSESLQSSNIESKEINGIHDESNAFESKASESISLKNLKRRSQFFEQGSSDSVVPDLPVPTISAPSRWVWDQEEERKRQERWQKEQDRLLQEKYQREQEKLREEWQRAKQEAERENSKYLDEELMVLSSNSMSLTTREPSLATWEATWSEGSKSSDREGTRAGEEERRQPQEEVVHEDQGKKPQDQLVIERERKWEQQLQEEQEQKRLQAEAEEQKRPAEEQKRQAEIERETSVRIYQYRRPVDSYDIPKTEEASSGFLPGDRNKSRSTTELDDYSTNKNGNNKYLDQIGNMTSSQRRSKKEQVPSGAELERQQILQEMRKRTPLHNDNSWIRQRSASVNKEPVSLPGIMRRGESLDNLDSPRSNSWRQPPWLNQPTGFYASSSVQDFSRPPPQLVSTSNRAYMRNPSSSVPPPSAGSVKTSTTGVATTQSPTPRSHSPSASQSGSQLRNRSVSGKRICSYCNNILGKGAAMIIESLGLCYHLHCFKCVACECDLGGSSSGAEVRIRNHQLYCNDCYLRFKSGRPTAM
- thermal stability z-score (potassium arsenate): -1.54
- thermal stability z-score (lipoamide; [1]): 1.17
- thermal stability z-score (lipoamide; arsenate co-treatment: none): 0.27

Target: PSMC2 (UniProt P35998)
- thermal stability z-score (potassium arsenate): -0.134
- thermal stability z-score (lipoamide; [1]): -0.293
- thermal stability z-score (lipoamide; arsenate co-treatment: none): -0.165

Target: PDPR (UniProt Q8NCN5)
- thermal stability z-score (potassium arsenate): -0.181
- thermal stability z-score (lipoamide; [1]): 0.399
- thermal stability z-score (lipoamide; arsenate co-treatment: none): 0.429

Target: LYN (UniProt P07948)
- thermal stability z-score (potassium arsenate): -0.89
- thermal stability z-score (lipoamide; [1]): 0.264
- thermal stability z-score (lipoamide; arsenate co-treatment: none): 0.362

Target: PRTFDC1 (UniProt Q9NRG1)
- thermal stability z-score (potassium arsenate): -0.386
- thermal stability z-score (lipoamide; [1]): 0.628
- thermal stability z-score (lipoamide; arsenate co-treatment: none): 0.169

Target: WDR19 (UniProt Q8NEZ3)
- thermal stability z-score (potassium arsenate): 0.81
- thermal stability z-score (lipoamide; [1]): -0.121
- thermal stability z-score (lipoamide; arsenate co-treatment: none): 0.369

Target: PPIP5K2 (UniProt O43314)
- thermal stability z-score (potassium arsenate): -0.606
- thermal stability z-score (lipoamide; [1]): 0.258
- thermal stability z-score (lipoamide; arsenate co-treatment: none): 0.00428

Target: DOCK1 (UniProt Q14185)
- thermal stability z-score (potassium arsenate): 0.0692
- thermal stability z-score (lipoamide; [1]): -0.371
- thermal stability z-score (lipoamide; arsenate co-treatment: none): -1.05

Target: RNF123 (UniProt Q5XPI4)
- thermal stability z-score (potassium arsenate): -0.445
- thermal stability z-score (lipoamide; [1]): -0.194
- thermal stability z-score (lipoamide; arsenate co-treatment: none): -0.0174

Target: CARM1 (UniProt Q86X55)
- thermal stability z-score (potassium arsenate): 0.086
- thermal stability z-score (lipoamide; [1]): 0.99
- thermal stability z-score (lipoamide; arsenate co-treatment: none): 0.944

Target: POLDIP3 (UniProt Q9BY77)
- thermal stability z-score (potassium arsenate): -1.86
- thermal stability z-score (lipoamide; [1]): -0.257
- thermal stability z-score (lipoamide; arsenate co-treatment: none): 0.0404

Target: DDB1 (UniProt Q16531)
- thermal stability z-score (potassium arsenate): -0.468
- thermal stability z-score (lipoamide; [1]): -0.479
- thermal stability z-score (lipoamide; arsenate co-treatment: none): -0.519

Target: MARK3 (UniProt P27448)
- thermal stability z-score (potassium arsenate): -0.0953
- thermal stability z-score (lipoamide; [1]): -0.0834
- thermal stability z-score (lipoamide; arsenate co-treatment: none): -0.0843

Target: ABCF3 (UniProt Q9NUQ8)
- thermal stability z-score (potassium arsenate): 0.516
- thermal stability z-score (lipoamide; [1]): -0.505
- thermal stability z-score (lipoamide; arsenate co-treatment: none): -0.0312

Target: PPTC7 (UniProt Q8NI37)
- thermal stability z-score (potassium arsenate): 0.222
- thermal stability z-score (lipoamide; [1]): -0.248
- thermal stability z-score (lipoamide; arsenate co-treatment: none): -0.287

Target: GUSB (UniProt P08236)
- thermal stability z-score (potassium arsenate): 0.885
- thermal stability z-score (lipoamide; [1]): -0.178
- thermal stability z-score (lipoamide; arsenate co-treatment: none): -0.261

Target: USP14 (UniProt P54578)
- thermal stability z-score (potassium arsenate): -0.0718
- thermal stability z-score (lipoamide; [1]): 0.406
- thermal stability z-score (lipoamide; arsenate co-treatment: none): -0.143

Target: NPM3 (UniProt O75607)
- thermal stability z-score (potassium arsenate): -0.95
- thermal stability z-score (lipoamide; [1]): 0.175
- thermal stability z-score (lipoamide; arsenate co-treatment: none): 0.102

Target: PDRG1 (UniProt Q9NUG6)
UniProt Q9NUG6, sequence (Q9NUG6 whole entry): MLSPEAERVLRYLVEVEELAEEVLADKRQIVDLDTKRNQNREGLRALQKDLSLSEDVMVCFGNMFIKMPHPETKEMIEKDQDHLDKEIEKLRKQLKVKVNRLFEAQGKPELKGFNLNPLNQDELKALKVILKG
- thermal stability z-score (potassium arsenate): 0.203
- thermal stability z-score (lipoamide; [1]): 0.0914
- thermal stability z-score (lipoamide; arsenate co-treatment: none): -0.238

Target: STK17A (UniProt Q9UEE5)
- thermal stability z-score (potassium arsenate): 0.0862
- thermal stability z-score (lipoamide; [1]): -0.0669
- thermal stability z-score (lipoamide; arsenate co-treatment: none): -0.0755

— the supplement of paper PMC12463676, “Small-molecule dissolution of stress granules by redox modulation benefits ALS models” (Nature Chemical Biology, 2025)
